Experimental data as given in ChEMBL document CHEMBL2057175, “New structure-activity relationships of A- and D-ring modified steroidal aromatase inhibitors: design, synthesis, and biochemical evaluation” (J Med Chem, 2012).

How the values were obtained:
Aromatase [1] = target: T1, Aromatase (Homo sapiens, UniProt P11511); assay: Competitive inhibition of aromatase in human microsomes using [1beta-3H]androstenedione as substrate after 5 mins by Lineweaver-Burk plot analysis; set-up: species or system Microsome
T1 sequence (P11511 whole entry): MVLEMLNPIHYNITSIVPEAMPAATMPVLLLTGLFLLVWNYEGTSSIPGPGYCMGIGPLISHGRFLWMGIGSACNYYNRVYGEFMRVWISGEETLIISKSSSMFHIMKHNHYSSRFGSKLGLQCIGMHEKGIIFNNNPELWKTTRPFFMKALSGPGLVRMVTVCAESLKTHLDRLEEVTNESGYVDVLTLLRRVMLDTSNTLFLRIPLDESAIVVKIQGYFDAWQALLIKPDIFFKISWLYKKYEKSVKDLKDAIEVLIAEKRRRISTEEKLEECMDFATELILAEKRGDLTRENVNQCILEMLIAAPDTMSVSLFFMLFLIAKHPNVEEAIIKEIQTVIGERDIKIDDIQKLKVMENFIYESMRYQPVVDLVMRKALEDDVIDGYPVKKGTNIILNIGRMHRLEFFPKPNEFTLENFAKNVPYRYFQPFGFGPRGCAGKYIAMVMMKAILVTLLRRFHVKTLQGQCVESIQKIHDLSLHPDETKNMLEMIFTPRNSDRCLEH

Aromatase [2] = target: T1, Aromatase; settings: 0.25 h, read-out: INH
Description: Inhibition of aromatase in human placental microsomes using [1beta-3H]androstenedione as substrate at 2 uM after 15 mins by liquid scintillation counting

Aromatase [3] = target: T1, Aromatase; assay: Inhibition of aromatase in human microsomes using [1beta-3H]androstenedione as substrate after 5 mins by Dixon plot analysis; set-up: species or system Microsome; settings: read-out: Ki(app)
Aromatase [4] = target: T1, Aromatase; assay: Inhibition of aromatase in human placental microsomes using [1beta-3H]androstenedione as substrate after 15 mins by liquid scintillation counting; set-up: species or system Placenta

With `C[C@]12CC[C@H](O)C=C1CC[C@@H]1[C@@H]2CC[C@]2(C)C(=O)CC[C@@H]12` the “inhibition (INH)” value (Aromatase [1]) was “Active” and the inhibition at 2 µM (Aromatase [2]) was 93.1%.
For `C[C@]12CCC=C[C@@H]1CC[C@@H]1[C@@H]2CC[C@]2(C)C(=O)CC[C@@H]12`, the “inhibition (INH)” value (Aromatase [1]) was “Active” and the Ki (Aromatase [3]) was 0.05 µM.
`C[C@]12CC[C@H]3O[C@H]3[C@@H]1CC[C@@H]1[C@@H]2CC[C@]2(C)C(=O)CC[C@@H]12` was tested, and the “inhibition (INH)” value (Aromatase [1]) was “Active”.
For `C[C@]12CCCC=C1CC[C@@H]1[C@@H]2CC[C@]2(C)C(=O)CC[C@@H]12`, the inhibition at 2 µM (Aromatase [2]) was 97.8%.
In the case of `C[C@]12CC[C@@H](O)C=C1CC[C@@H]1[C@@H]2CC[C@]2(C)C(=O)CC[C@@H]12`, the inhibition at 2 µM (Aromatase [2]) is reported as 60.8%.
`CC(=O)O[C@H]1CC[C@H]2[C@@H]3CCC4=C[C@@H](O)CC[C@]4(C)[C@H]3CC[C@]12C` gave an inhibition at 2 µM (Aromatase [2]) of 4.6%.
In the case of `C[C@]12CC[C@H]3[C@@H](CC[C@@]45O[C@@H]4CCC[C@]35C)[C@@H]1CCC2=O`, the IC50 (Aromatase [4]) is reported as 0.97 µM, the “inhibition (INH)” value (Aromatase [1]) is reported as “Active” and the Ki (Aromatase [3]) is reported as 0.086 µM. It also gave an inhibition at 2 µM (Aromatase [2]) of 84.6%.
With `C[C@]12CC=CC[C@@H]1CC[C@@H]1[C@@H]2CC[C@]2(C)C(=O)CC[C@@H]12` the IC50 (Aromatase [4]) was 1.73 µM, the “inhibition (INH)” value (Aromatase [1]) was “Active” and the Ki (Aromatase [3]) was 9.5 µM. The inhibition at 2 µM (Aromatase [2]) was 72%.
`C[C@]12C[C@H]3O[C@H]3C[C@@H]1CC[C@@H]1[C@@H]2CC[C@]2(C)C(=O)CC[C@@H]12` was tested, and the IC50 (Aromatase [4]) was 1.15 µM and the inhibition at 2 µM (Aromatase [2]) was 70.7%.
In the case of `C[C@]12C=CCC[C@@H]1CC[C@@H]1[C@@H]2CC[C@]2(C)C(=O)CC[C@@H]12`, the inhibition at 2 µM (Aromatase [2]) is reported as 56%.
`C[C@]12[C@@H](CC[C@@H]3[C@@H]1CC[C@]1(C)C(=O)CC[C@@H]31)CC[C@@H]1O[C@@H]12` was tested, and the inhibition at 2 µM (Aromatase [2]) was 40%.
In the case of `CC(=O)OC1=CCC[C@@]2(C)[C@H]1CC[C@@H]1[C@@H]2CC[C@]2(C)C(=O)CC[C@@H]12`, the inhibition at 2 µM (Aromatase [2]) is reported as 33.9%.
Compound `CC(=O)Oc1ccccc1C(=O)OC1=C2CC[C@@H]3[C@H](CC[C@]4(C)C(=O)CC[C@@H]34)[C@@]2(C)CCC1=O` has an inhibition at 2 µM (Aromatase [2]) of 68.7%.
Work on `C[C@]12CCC=C[C@@H]1CC[C@@H]1[C@@H]2CC[C@]2(C)C(=S)CC[C@@H]12` yielded an inhibition at 2 µM (Aromatase [2]) of 41.5%.
